Source: patent US6287840A (Axys Pharmaceuticals, Inc., priority 1999, dated 2001)
Peptide text beside a SMILES is read from it. * marks the point of attachment. X1 = CS(=O)(=O)C=CC(CC(=O)O)N*

Key:
Cloned cathepsin S = target: T1, Cloned cathepsin S (Homo sapiens, UniProt P25774); assay: Inhibition of cathepsin S, Z-Val-Val-Arg-AMC fluorescence progress curves; type: biochemical; details: for kobs /[I]* (approximate second-order inactivation constant) / kinact/KI: values marked *; for kinact/KI: read-out: kobs /[I]* (approximate second-order inactivation constant)
T1 construct: made in house
T1 sequence (P25774 115-331): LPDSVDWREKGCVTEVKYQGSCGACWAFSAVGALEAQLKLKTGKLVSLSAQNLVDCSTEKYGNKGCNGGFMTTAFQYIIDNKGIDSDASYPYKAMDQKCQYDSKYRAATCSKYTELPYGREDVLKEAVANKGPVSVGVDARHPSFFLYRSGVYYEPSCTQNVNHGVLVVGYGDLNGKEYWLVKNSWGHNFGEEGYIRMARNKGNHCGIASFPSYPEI
Method: Stock solutions of the various inhibitors (10 mM) were made in DMF; dilutions were made in the same solvent. Cloned cathepsin S, (see Bromme et al., J. Biol. Chem. 268(&): 4832-4838 (1993)) was less than 1 nM in the assay. The assay buffer contained 100 mM phosphate at pH 6.5, 0.01% Triton, 2.5 mM dithiothreitol (DTT), and 2.5 mM ethylenediaminetetraacetic acid (EDTA). The substrate for cathepsin S was 10 μM Z-Val-Val-Arg-AMC (carbobenzyloxyvalinylvalinylarginylaminomethylcoumarin). The assays were initiated at 25° C. by addition of enzyme to 2 mL of assay buffer containing the substrate and the various inhibitors (30-0.001 μM). The increase in fluorescence at 460 nm with excitation at 380 nm was followed with time. Inactivation of cathepsin S was indicated by a downward curve in the increase in fluorescence with time. In the absence of inhibitors, the enzymatic production of free AMC was linear throughout the time course of inactivation examined. Data points were collected over at least 3 half-times of inactivation. The inhibition progress curves were analyzed using non-linear curve fitting software to compute the kobs values. Approximate second-order inactivation constants (kobs /[I]) were calculated for all compounds. For selected inhibitors, plots of 1/[I] vs. 1/kobs yielded the true constants kirr, KI, and kirr /KI, and were corrected for the presence of substrate by dividing KI (app.) by {1+[S]/Km}.

cruzain, from T. cruzi = cruzain, from T. cruzi (Trypanosoma cruzi, UniProt P25779); assay: Inhibition of cruzain, as for cathepsin L; type: biochemical; details: for kobs /[I]* (approximate second-order inactivation constant): values marked *
Chain of cruzain, from T. cruzi (P25779 123-337 limits assumed): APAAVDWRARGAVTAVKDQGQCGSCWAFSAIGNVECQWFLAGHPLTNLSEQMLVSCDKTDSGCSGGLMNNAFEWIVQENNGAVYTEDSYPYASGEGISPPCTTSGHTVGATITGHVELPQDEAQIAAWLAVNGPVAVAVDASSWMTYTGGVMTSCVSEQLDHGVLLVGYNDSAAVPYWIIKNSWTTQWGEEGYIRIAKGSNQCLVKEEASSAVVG
Method: (§1) Stock solutions of the various inhibitors (10 mM) were made in DMF; dilutions were made in the same solvent. Cathepsin L from rat liver, (see Mason et al., Biochem. J. 226:233-241 (1985)) was approximately 1 nM in the assay. The assay buffer contained 50 mM phosphate at pH 6:2, 2.5 mM dithiothreitol (DTT), and 2.5 mM ethylenediaminetetraacetic acid (EDTA). The substrate for cathepsin L was 5 μM Z-Phe-Arg-AMC (carbobenzyloxyphenylalanylarginylaminomethylcoumarin). The assays were initiated at 25° C. by addition of enzyme to 2 mL of assay buffer containing the substrate and the various inhibitors (30-0.001 μM). The increase in fluorescence at 460 nm with excitation at 380 nm was followed with time. Inactivation of cathepsin L was indicated by a downward curve in the increase in fluorescence with time. In the absence of inhibitors, the enzymatic production of free AMC was linear throughout the time course of inactivation examined. Data points were collected over at least 3 half-times of inactivation. The inhibition progress curves were analyzed using non-linear curve fitting software to compute the kobs values. Approximate second-order inactivation constants (kobs /[I]) were calculated for all compounds. For selected inhibitors, plots of 1/[I] vs. 1/kobs yielded the true constants kirr, KI, and kirr/KI and were corrected for the presence of substrate by dividing KI (app.) by (1+[S]/Km).
Inhibition of cruzain, from T. cruzi, (see Eakin et at., J. Biol. Chem. 268(9): 6115-6118 (1993)) proceeded exactly as for cathepsin L, outlined above, using an enzyme concentration of 1 nM.

[1] = target: T2, Cathepsin B from human placenta (Homo sapiens, UniProt P07858); assay: Inhibition of cathepsin B, Z-Arg-Arg-AMC fluorescence progress curves; type: biochemical; details: for k/KI (kirr/KI): values without asterisk; for k/KI (kirr/KI) / kobs /[I]* (approximate second-order inactivation constant): 25° C., pH 6.2; for kobs /[I]* (approximate second-order inactivation constant): values marked *
T2 construct: Cathepsin B from human placenta, obtained from Sigma; purchased Sigma; host or cells: human placenta (tissue)
Method: Stock solutions of the various inhibitors (10 mM) were made in DMF; dilutions were made in the same solvent. Cathepsin B from human placenta, obtained from Sigma, was approximately 10 nM in the assay. The assay buffer contained 50 mM phosphate at pH 6.2, 2.5 mM dithiothreitol (DTT), and 2.5 mM ethylenediaminetetraacetic acid (EDTA). The substrate for cathepsin B was 50 μM Z-Arg-Arg-AMC (carbobenzyloxyarginylarginylaminomethylcoumarin). The assays were initiated at 25° C. by addition of enzyme to 2 mL of assay buffer containing the substrate and the various inhibitors (30-0.001 (μM). The increase in fluorescence at 460 nm with excitation at 380 nm was followed with time, and the assay was linear throughout the range observed. Inactivation of cathepsin B was indicated by a downward curve in the increase in fluorescence with time. In the absence of inhibitors, the enzymatic production of free AMC was linear throughout the time course of inactivation examined. Data points were collected over at least 3 half-times of inactivation, and in duplicate. The inhibition progress curves were analyzed using non-linear curve fitting software to compute the kobs values. Approximate second-order inactivation constants (kobs /[I]) were calculated for all compounds. For selected inhibitors, plots of 1/[I] vs. 1/kobs yielded the true constants kirr, KI, and kirr /KI, and were corrected for the presence of substrate by dividing KI (app.) by {1+[S]/Km }.

[2] = target: T3, Cathepsin L from rat liver (Rattus norvegicus, UniProt P07154); assay: Inhibition of cathepsin L, Z-Phe-Arg-AMC fluorescence progress curves; type: biochemical; details: for Ki: corrected for substrate; for k/KI (kirr/KI): values without asterisk; for k/KI (kirr/KI) / kobs /[I]* (approximate second-order inactivation constant): 25° C., pH 6.2; for kobs /[I]* (approximate second-order inactivation constant): values marked *
T3 construct: Cathepsin L from rat liver; from tissue; host or cells: rat liver
T3 sequence (P07154 114-288 limits assumed): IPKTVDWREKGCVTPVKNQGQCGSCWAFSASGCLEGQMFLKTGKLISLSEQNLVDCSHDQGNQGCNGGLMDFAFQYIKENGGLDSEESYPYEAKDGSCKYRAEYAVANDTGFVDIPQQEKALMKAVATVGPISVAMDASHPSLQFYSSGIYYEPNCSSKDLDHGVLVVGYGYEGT
T3 sequence (P07154 291-334 limits assumed): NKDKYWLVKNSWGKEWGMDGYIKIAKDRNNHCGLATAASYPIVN
Method: as §1

[3] = system: Leishmania donovani amastigote infected mouse peritoneal macrophages; assay: In vitro antiprotozoal activity, Leishmania donovani; type: cell-based; parameters: key to percentage inhibition, L. donovani: the term "T" indicates the molecule to have displayed cytotoxicity
Method: (§2) In this table, the in vitro antiprotozoal activities of the indicated compounds were measured as percentage inhibition of Leishmania donovani amastigote infecteda mouse peritoneal macrophages, Trypanosoma cruzi amastigote infected macrophages, and Trypanosoma brucei extracellular bloodstream forms.

[4] = system: Trypanosoma cruzi amastigote infected macrophages; assay: In vitro antiprotozoal activity, Trypanosoma cruzi; type: cell-based
Method: as §2

[5] = system: Trypanosoma brucei extracellular bloodstream forms; assay: In vitro antiprotozoal activity, Trypanosoma brucei; type: cell-based
Method: as §2

Compound: Cl.NC(Cc1ccccc1)C(=O)NC(C=CS(=O)(=O)c1ccccc1)CCc1ccccc1 (stereo not drawn) [HCl.Phe-HphVSPh]
- kobs /[I]* (approximate second-order inactivation constant) (Cloned cathepsin S; 25° C., pH 6.5): 35,000 M^-1 sec^-1
- kobs /[I]* (approximate second-order inactivation constant) (cruzain, from T. cruzi): 14,600 M^-1 sec^-1

Compound: (S)-(E)-Ethyl8-(benzyloxycarbonyl)amino-4-(4-morpholinecarbonylphenylalanyl)amino-2-octenoate [Mu-Phe-Lys(Z)VEOEt]
- kirr [1]: 0.13 s⁻¹
- Ki ([1]; corrected for substrate): 32 µM
- k/KI (kirr/KI) [1]: 4100 M⁻¹ s⁻¹
- kirr [2]: 0.87 s⁻¹
- Ki [2]: 6.2 µM
- k/KI (kirr/KI) [2]: 13,900 M^-1 sec^-1
- kirr (Cloned cathepsin S): 0.13 s⁻¹
- Ki (Cloned cathepsin S; corrected for substrate): 1.3 µM
- k/KI (kirr/KI) (Cloned cathepsin S; values without asterisk, 25° C., pH 6.5): 100,000 M^-1 sec^-1

Compound: CS(=O)(=O)/C=C/[C@@H](N)Cc1ccccc1.Cl [HCl.PheVSMe]
- percentage inhibition, L. donovani ([3]; 3 uM): 100%
- percentage inhibition, L. donovani ([3]; 10 uM): 100%
- percentage inhibition, L. donovani ([3]; 30 uM): 100%
- percentage inhibition, L. donovani ([3]; 90 uM): 100%
- percentage inhibition, T. cruzi ([4]; 3 uM): 0%
- percentage inhibition, T. cruzi ([4]; 10 uM): 0%
- percentage inhibition, T. cruzi ([4]; 30 uM): 0%
- percentage inhibition, T. cruzi ([4]; 90 uM): 17.3%
- percentage inhibition, T. brucei ([5]; 3 uM): 0%
- percentage inhibition, T. brucei ([5]; 10 uM): 0%
- percentage inhibition, T. brucei ([5]; 30 uM): 0%
- percentage inhibition, T. brucei ([5]; 90 uM): 0%

Compound: CC(=O)NC(Cc1ccc(O)cc1)C(=O)NC(Cc1ccc(O)cc1)C(=O)NC(C(=O)NC(C)C(=O)NC(C=CS(C)(=O)=O)CC(=O)O)C(C)C (stereo not drawn) [Ac-Tyr-Tyr-Val-Ala-AspVSMe] (Ac-YYVA-X1; configuration not given here)
- k/KI (kirr/KI) [1]: 0 M⁻¹ s⁻¹

Compound: CC(=O)N[C@@H](CC(C)C)C(=O)N[C@@H](CC(C)C)C(=O)N[C@H](/C=C/S(=O)(=O)c1ccccc1)Cc1ccc(O)cc1 [Ac-Leu-Leu-TyrVSPh, (S)-(E)-3-(acetylleucylleucyl)amino-4-(4-hydroxyphenyl)-1-phenylsulfonyl-1-butene]
- kinact/KI (Cloned cathepsin S; 25° C., pH 6.5): 100000 M⁻¹ s⁻¹

Compound: (S)-(E)-3-(4-morpholinecarbonylphenylalanyl)amino-1-(4-bromophenylsulfonyl)-5-phenyl-1-pentene [Mu-Phe-HphVSPhBr]
- kobs /[I]* (approximate second-order inactivation constant) [1]: 15,500 M^-1 sec^-1

Compound: O=C(NCCCC[C@@H](/C=C/S(=O)(=O)c1ccccc1)NC(=O)[C@H](Cc1ccccc1)NC(=O)N1CCOCC1)c1ccccc1 [Mu-Phe-Lys(Bz)VSPh, (S)-(E)-3-(4-morpholinecarbonylphenylalanyl)amino-7-benzoylamino-1-phenylsulfonyl-1-heptene]
- kobs /[I]* (approximate second-order inactivation constant) [2]: 210,000 M^-1 sec^-1
- kobs /[I]* (approximate second-order inactivation constant) (Cloned cathepsin S; 25° C., pH 6.5): 2,500,000 M^-1 sec^-1
- kobs /[I]* (approximate second-order inactivation constant) (cruzain, from T. cruzi): 60,000 M^-1 sec^-1

Compound: (S)-(E)-3-(4-morpholinecarbonyl-2-naphthylalanyl)amino-5-phenyl-1-phenylsulfonyl-1-pentene [Mu-Np-HphVSPh]
- kobs /[I]* (approximate second-order inactivation constant) [1]: 86,000 M^-1 sec^-1
- kobs /[I]* (approximate second-order inactivation constant) [2]: 1,000,000 M^-1 sec^-1
- k/KI (kirr/KI) (cruzain, from T. cruzi; values without asterisk): 218,000 M^-1 sec^-1

Compound: O=C(/C=C/[C@H](CCc1ccccc1)NC(=O)C(Cc1ccccc1)NC(=O)N1CCOCC1)NC(Cc1ccccc1)C(=O)O (stereo partly drawn) [Mu-Phe-HphVAM-PheOH, (S)-(E)-(N-phenylalanine)-4-(4-morpholinecarbonylphenylalanyl)amino-6-phenyl-2-hexenamide]
- kobs /[I]* (approximate second-order inactivation constant) [1]: 600 M⁻¹ s⁻¹
- kobs /[I]* (approximate second-order inactivation constant) (Cloned cathepsin S; 25° C., pH 6.5): 10,600 M^-1 sec^-1

Compound: Cl.NC(C=CS(=O)(=O)c1ccccc1)CCCCNC(=O)OCc1ccccc1 (stereo not drawn) [HCl.(e-Z)LysVSPh]
- percentage inhibition, L. donovani ([3]; 3 uM): 100%
- percentage inhibition, L. donovani ([3]; 10 uM): 100%
- percentage inhibition, L. donovani ([3]; 30 uM): T
- percentage inhibition, L. donovani ([3]; 90 uM): T
- ED50, T. cruzi [4]: 18.34 µM
- percentage inhibition, T. cruzi ([4]; 3 uM): 2.7%
- percentage inhibition, T. cruzi ([4]; 10 uM): 10.6%
- percentage inhibition, T. cruzi ([4]; 30 uM): 82.8%
- percentage inhibition, T. cruzi ([4]; 90 uM): 97.8%
- ED50, T. brucei [5]: 8 µM
- percentage inhibition, T. brucei ([5]; 1 uM): 7.6%
- percentage inhibition, T. brucei ([5]; 3 uM): 13%
- percentage inhibition, T. brucei ([5]; 10 uM): 39.3%
- percentage inhibition, T. brucei ([5]; 30 uM): 100%
- percentage inhibition, T. brucei ([5]; 90 uM): 100%

Compound: CN(C)S(=O)(=O)N[C@@H](Cc1ccccc1)C(=O)N[C@H](/C=C/S(=O)(=O)c1ccccc1)CCc1ccccc1 [DimSam-Phe-HphVSPh, (S)-(E)-3-(dimethylsulfamoylphenylalanyl)amino-5-phenyl-1-phenylsulfonyl-1-pentene]
- kinact/KI (Cloned cathepsin S; 25° C., pH 6.5): 920000 M⁻¹ s⁻¹

Compound: O=C(N[C@@H](/C=C/S(=O)(=O)c1ccccc1)CCc1ccccc1)C(Cc1ccccc1)NC(=O)N1CCOCC1 (stereo partly drawn) [Mu-Phe-D-HphVSPh, (R)-(E)-3-(4-morpholinecarbonylphenylalanyl)amino-5-phenyl-1-phenylsulfonyl-1-pentene]
- kobs /[I]* (approximate second-order inactivation constant) [2]: 4,500 M^-1 sec^-1
- kobs /[I]* (approximate second-order inactivation constant) (Cloned cathepsin S; 25° C., pH 6.5): 68,500 M^-1 sec^-1

Compound: O=C(NCCCC[C@@H](C=C(F)S(=O)(=O)c1ccccc1)NC(=O)[C@H](Cc1ccccc1)NC(=O)N1CCOCC1)OCc1ccccc1 [Mu-Phe-Lys(Z)fVSPh, (S)-7-(benzyloxycarbonyl)amino-3-(4-morpholinecarbonylphenylalanyl)amino-1-fluoro-1-phenylsulfonyl-1-heptene]
- kobs /[I]* (approximate second-order inactivation constant) [1]: 2,000 M^-1 sec^-1
- kobs /[I]* (approximate second-order inactivation constant) (Cloned cathepsin S; 25° C., pH 6.5): 10,700 M^-1 sec^-1

Compound: CC(C)C[C@H](NC(=O)OCc1ccccc1)C(=O)N[C@H](/C=C/S(=O)(=O)c1ccccc1)Cc1ccccc1
- kobs /[I]* (approximate second-order inactivation constant) (Cloned cathepsin S; 25° C., pH 6.5): 3,000,000 M^-1 sec^-1

Compound: Br.CCOC(=O)/C=C/[C@H](CCCCN)NC(=O)[C@H](Cc1ccccc1)NC(=O)N1CCOCC1 [Mu-Phe-LysVEOEt.HBr, (S)-(E)-Ethyl 8-amino-4-(4-morpholinecarbonylphenylalanyl)amino-2octenoate hydrobromide]
- kobs /[I]* (approximate second-order inactivation constant) [1]: 650 M⁻¹ s⁻¹
- kirr [2]: 0.085 s⁻¹
- Ki [2]: 24.2 µM
- k/KI (kirr/KI) [2]: 3500 M⁻¹ s⁻¹

Compound: Boc-phenylalanyl-homophenylalanyl-p-nitrostyryl
- kobs /[I]* (approximate second-order inactivation constant) (Cloned cathepsin S; 25° C., pH 6.5): 40,100 M^-1 sec^-1
